Source: ChEMBL document CHEMBL1130853, “Synthesis and biological properties of new 1 beta-methylcarbapenems” (Bioorg Med Chem Lett, 1998)
Converted amounts (≈) assume the structure as drawn.

Experiments:
Enterococcus faecium = test: Antibacterial activity against Streptococcus faecium MD 8b; assay type: functional
Escherichia coli [1] = test: microbe, parasite or virus in culture; assay type: functional
Description: Antibacterial activity against Escherichia coli 1507E

Staphylococcus aureus = test: Antibacterial activity against Staphylococcus aureus SG 511; assay type: functional
Klebsiella aerogenes = test: Antibacterial activity against Klebsiella aerogenes 1522E; assay type: functional
Streptococcus pyogenes [2] = test: Antibacterial activity against Streptococcus pyogenes 77A; assay type: functional
Pseudomonas aeruginosa [3] = test: microbe, parasite or virus in culture; assay type: functional
Description: Antibacterial activity against Pseudomonas aeruginosa 1771M

Pseudomonas aeruginosa [4] = test: microbe, parasite or virus in culture; assay type: functional; remark: listed apart in the source
Description: Compound was evaluated for antibacterial activity against Pseudomonas aeruginosa 1592E

[5] = Antibacterial activity against Enterobacter cloacae 1321E; assay type: functional
Salmonella typhimurium = test: Antibacterial activity against Salmonella Typhimurium; assay type: functional, Salmonella enterica subsp. enterica serovar Typhimurium; conditions: Salmonella enterica
[6] = biological target: T1, Dipeptidase 1 (Sus scrofa) (UniProt P22412); test: Compound was evaluated for relative rate of hydrolysis to imipenem by partially purified porcine renal Dehydropeptidase-1; set-up: scale not given: the % may be the effect or the level left
T1 sequence (whole entry): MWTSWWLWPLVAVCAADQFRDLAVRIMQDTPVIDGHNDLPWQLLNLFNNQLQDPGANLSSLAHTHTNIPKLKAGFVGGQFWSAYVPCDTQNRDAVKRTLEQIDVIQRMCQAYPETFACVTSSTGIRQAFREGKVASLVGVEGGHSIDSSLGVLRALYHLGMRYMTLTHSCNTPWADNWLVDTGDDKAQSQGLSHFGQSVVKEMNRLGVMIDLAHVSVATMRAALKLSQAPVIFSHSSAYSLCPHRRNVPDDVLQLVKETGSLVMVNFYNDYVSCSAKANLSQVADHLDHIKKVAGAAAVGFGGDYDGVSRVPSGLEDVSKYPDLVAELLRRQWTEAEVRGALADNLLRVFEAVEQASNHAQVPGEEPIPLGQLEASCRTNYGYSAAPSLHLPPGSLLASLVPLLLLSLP

Pseudomonas aeruginosa [7] = test: Compound was tested for in vivo protective activity against Pseudomonas aeruginosa 1771M at a single subcutaneous administration in mice.; assay type: functional; conditions: sc, read-out: PD50
Escherichia coli [8] = test: Compound was tested for in vivo protective activity against Escherichia coli 078 at a single subcutaneous administration in mice.; assay type: functional; conditions: sc, read-out: PD50
[9] = Time taken by the compound to reach maximum concentration.; assay type: ADME
Streptococcus pyogenes [10] = test: Compound was tested for in vivo protective activity against Streptococcus pyogenes 77A at a single subcutaneous administration in mice.; assay type: functional; conditions: sc, read-out: PD50

| SMILES | MIC (Enterococcus faecium) | MIC (Escherichia coli [1]) | MIC (Staphylococcus aureus) | MIC (Klebsiella aerogenes) | MIC (Streptococcus pyogenes [2]) | MIC (Pseudomonas aeruginosa [3]) | MIC (Pseudomonas aeruginosa [4]) | MIC [5] | MIC (Salmonella typhimurium) | Stability [6] | ED50 (Pseudomonas aeruginosa [7]) | ED50 (Escherichia coli [8]) | Tmax [9] | ED50 (Streptococcus pyogenes [10]) |
| --- | --- | --- | --- | --- | --- | --- | --- | --- | --- | --- | --- | --- | --- | --- |
| C[C@@H](O)[C@H]1C(=O)N2C(C(=O)O)=C(S[C@@H]3CN[C@H](C(=O)NCCS(=O)(=O)NCCO)C3)[C@H](C)[C@H]12 | 12.5 µg/mL (≈ 24.7 µM) | 0.025 µg/mL (≈ 0.0493 µM) | 0.195 µg/mL (≈ 0.385 µM) | 0.049 µg/mL (≈ 0.0967 µM) | 0.007 µg/mL (≈ 0.0138 µM) | 0.391 µg/mL (≈ 0.772 µM) | 0.391 µg/mL (≈ 0.772 µM) | 0.025 µg/mL (≈ 0.0493 µM) | 0.049 µg/mL (≈ 0.0967 µM) |  |  |  |  |  |
| C[C@@H](O)[C@H]1C(=O)N2C(C(=O)O)=C(SCCNC=N)C[C@H]12 [IMIPENEM ANHYDROUS] | 1.56 µg/mL (≈ 5.22 µM) | 0.195 µg/mL (≈ 0.651 µM) | 0.013 µg/mL (≈ 0.0434 µM) | 0.391 µg/mL (≈ 1.31 µM) | 0.004 µg/mL (≈ 0.0134 µM) | 0.195 µg/mL (≈ 0.651 µM) | 0.781 µg/mL (≈ 2.61 µM) | 0.195 µg/mL (≈ 0.651 µM) | 0.781 µg/mL (≈ 2.61 µM) | 10000% |  |  |  |  |
| C=CCNS(=O)(=O)CCNC(=O)[C@@H]1C[C@H](SC2=C(C(=O)O)N3C(=O)[C@H]([C@@H](C)O)[C@H]3[C@H]2C)CN1 | 6.25 µg/mL (≈ 12.4 µM) | 0.025 µg/mL (≈ 0.0497 µM) | 0.195 µg/mL (≈ 0.388 µM) | 0.049 µg/mL (≈ 0.0975 µM) | 0.007 µg/mL (≈ 0.0139 µM) | 0.781 µg/mL (≈ 1.55 µM) | 1.56 µg/mL (≈ 3.11 µM) | 0.025 µg/mL (≈ 0.0497 µM) | 0.049 µg/mL (≈ 0.0975 µM) |  |  |  |  |  |
| C[C@@H](O)[C@H]1C(=O)N2C(C(=O)O)=C(S[C@@H]3CN[C@H](C(=O)NCCC(=O)N(C)C)C3)[C@H](C)[C@H]12 | 12.5 µg/mL (≈ 27.5 µM) | 0.025 µg/mL (≈ 0.055 µM) | 0.195 µg/mL (≈ 0.429 µM) | 0.049 µg/mL (≈ 0.108 µM) | 0.007 µg/mL (≈ 0.0154 µM) | 0.391 µg/mL (≈ 0.86 µM) | 1.56 µg/mL (≈ 3.44 µM) | 0.025 µg/mL (≈ 0.055 µM) | 0.049 µg/mL (≈ 0.108 µM) |  |  |  |  |  |
| C[C@@H](O)[C@H]1C(=O)N2C(C(=O)O)=C(S[C@@H]3CN[C@H](C(=O)NCCS(=O)(=O)N4CCOCC4)C3)[C@H](C)[C@H]12 | 12.5 µg/mL (≈ 23.5 µM) | 0.049 µg/mL (≈ 0.092 µM) | 0.391 µg/mL (≈ 0.734 µM) | 0.098 µg/mL (≈ 0.184 µM) | 0.013 µg/mL (≈ 0.0244 µM) | 1.56 µg/mL (≈ 2.93 µM) | 50 µg/mL (≈ 93.9 µM) | 0.049 µg/mL (≈ 0.092 µM) | 0.098 µg/mL (≈ 0.184 µM) |  |  |  |  |  |
| C[C@@H](O)[C@H]1C(=O)N2C(C(=O)O)=C(S[C@@H]3CN[C@H](C(=O)N(C)C)C3)[C@H](C)[C@H]12 [MEROPENEM] | 12.5 µg/mL (≈ 32.6 µM) | 0.025 µg/mL (≈ 0.0652 µM) | 0.098 µg/mL (≈ 0.256 µM) | 0.049 µg/mL (≈ 0.128 µM) | 0.002 µg/mL (≈ 0.00522 µM) | 0.049 µg/mL (≈ 0.128 µM) | 0.195 µg/mL (≈ 0.509 µM) | 0.025 µg/mL (≈ 0.0652 µM) | 0.025 µg/mL (≈ 0.0652 µM) | 3200% | 1.76 mg/kg | 1.24 mg/kg | 12.6 min | 7.16 mg/kg |
| C[C@@H](O)[C@H]1C(=O)N2C(C(=O)O)=C(S[C@@H]3CN[C@H](C(=O)NCCC(=O)N4CCCC4)C3)[C@H](C)[C@H]12 | 12.5 µg/mL (≈ 26 µM) | 0.025 µg/mL (≈ 0.052 µM) | 0.195 µg/mL (≈ 0.406 µM) | 0.049 µg/mL (≈ 0.102 µM) | 0.007 µg/mL (≈ 0.0146 µM) | 0.781 µg/mL (≈ 1.63 µM) | 6.25 µg/mL (≈ 13 µM) | 0.025 µg/mL (≈ 0.052 µM) | 0.049 µg/mL (≈ 0.102 µM) |  |  |  |  |  |
| C[C@@H](O)[C@H]1C(=O)N2C(C(=O)O)=C(S[C@@H]3CN[C@H](C(=O)NCCS(N)(=O)=O)C3)[C@H](C)[C@H]12 | 6.25 µg/mL (≈ 13.5 µM) | 0.013 µg/mL (≈ 0.0281 µM) | 0.098 µg/mL (≈ 0.212 µM) | 0.049 µg/mL (≈ 0.106 µM) | 0.004 µg/mL (≈ 0.00865 µM) | 0.195 µg/mL (≈ 0.422 µM) | 0.195 µg/mL (≈ 0.422 µM) | 0.025 µg/mL (≈ 0.054 µM) | 0.025 µg/mL (≈ 0.054 µM) | 2400% | 2.6 mg/kg | 0.47 mg/kg | < 19.8 min | 2.31 mg/kg |
